Several values for one entry are separate records, joined by “and”; a condition that tells them apart may be missing. Identical values can stand only once. Entries after “also recorded” stand apart in the source; their conditions may differ.
How the values were obtained:
[1] = system: subclone 5 spheroids (DU145 derived); assay: 3D culture spheroid growth, subclone 5; assay type: cell-based, human; settings: subclone 5 spheroids in 3D culture
Protocol: 3D culture-spheroid invasion assay. Cells were trypsinized gently (0.05% Trypsin-EDTA) and diluted at 1000 cells in 20 μl of full serum media for DU145 and C4-2 derived sub-clones or 500 cells in 20 ul for PC3 cells and allowed to form spheroids using hanging drop technique for 3 days, as described previously. Generated spheroids were then embedded into 3D matrix (not yet solidified at the time of experiment), as described in the previous section, on top of a 1% solidified agarose coating in 48 well plates. Spheroids were monitored from day 1 to different time points and images were taken using a phase contrast microscope fitted with camera, at same settings. Spheroid growth or invasion area was quantified using ImageJ software from NIH. The following formulas were used for quantitation of spheroids:
Spheroid growth=(Spheroid area at Day 3 or 7-Spheroid area at 16 hours)/Spheroid area at 16 hours
For drug treatment, compound was diluted into media, from stock solution. For MMP secretion, conditioned media for 3 days were collected from top of matrix and assessed for MMP secretion by Western blot using Matrix Remodeling Antibody Sampler kit from Cell Signaling Technology (Cat #73959).

plasma stability = assay type: in vitro ADME
PC3 cells [2] = assay: Western blot and cell fractionation in PC3 cells; assay type: cell-based, human; settings: PC3, 72-120 hours of treatment
Protocol: Western blot, Immunoprecipitation and Immunostaining. Cells were grown to 100% confluency and Western blot were performed as described before. Images were quantified with ImageJ software from NIH. Immunoprecipitation studies were performed as described before. α1 NKA immunostaining was performed by growing cells on sterilized coverslips in 6 well tissue culture plates and permeabilization/fixation with ice-cold methanol followed by blocking with 5% horse serum and 0.1% Triton X-100 in 1× Phosphate buffered saline (PBS) for 30 minutes. Coverslips were then stained with an anti-α1 NKA antibody (Millipore, Cat #05-369) at 1:100 dilution in 1% BSA (Bovine Serum Albumin) containing 1×PBS solution for overnight. Next day after three washes, coverslips were stained with Alexa Fluor 488 conjugated anti-mouse secondary antibody (Thermo-Fisher) for 1 hour, washed extensively and then imaged using a fluorescent microscope with GFP filter or confocal microscope (LEICA-DMIRE2). E-cadherin and occludin immunostaining was performed in a similar manner. Phospho-Src, phospho ERK1/2 immunostaining were performed as described before and images were taken with a LEICA DMIRE2 confocal microscope.

[3] = system: DU145 or α1 knockdown cells (KD) xenograft; assay: tumor xenograft of DU145 or α1 KD cells in NOD/SCID mice; assay type: in vivo, mouse
Protocol: (§1) Mice studies. Animal protocols were approved by an Institutional Animal Care and Use Committee (IACUC) according to NIH guidelines. Tumor xenografts were established by subcutaneous injection of 5×10^6 cancer cells into the left and right flanks of 10-week-old male NOD/SCID mice (Charles River). Tumor length (L) and width (W) were measured with calipers weekly and tumor volume was estimated as V=(L×W^2)/2. After the tumor volumes reached approximately 100 mm^3, mice were sacrificed and tumors were harvested. Half of the tumors were used for protein extraction and the other half were digested with collagenase I solution (SIGMA) to isolate cancer cells.
(§2) For MB5 treatment, after tumor volume reached approximately 100 mm^3, mice were injected peritoneally with DMSO or MB5 at 20 mg/kg or 10 mg/kg daily and further monitored for tumor growth weekly. At the end of treatment period (about 2-3 weeks), tumors were harvested and tumor lysates were analyzed for protein expression by Western blot.
The therapeutic potential of MB5 in a tumor xenograft model was first tested by injecting DU145 or corresponding α1 knockdown cells (KD) into the right or left flank of 10-week-old NOD/SCID mice. The tumor growth was monitored twice weekly. Once the tumors reached a volume of approximately 100 mm^3, the animals received daily injections of MB5 at 20 mg/kg intraperitoneally for 3.5 weeks. […] Next, it was determined whether MB5 could decrease tumor growth of highly aggressive subclones derived from DU145. […] FIG. 26E summarizes the effect of MB5 treatment on all types of xenografted tumor growth from DU145 and derivative cell lines.

[4] = system: subclone 4 and 2 xenograft; assay: tumor xenograft of aggressive subclones 4 and 2 in NOD/SCID mice; assay type: in vivo, mouse
Protocol: as §1, §2
The therapeutic potential of MB5 in a tumor xenograft model was first tested by injecting DU145 or corresponding α1 knockdown cells (KD) into the right or left flank of 10-week-old NOD/SCID mice. The tumor growth was monitored twice weekly. […] Next, it was determined whether MB5 could decrease tumor growth of highly aggressive subclones derived from DU145. […]

α1 NKA = biological target: T1, α1 NKA (Homo sapiens, UniProt P05023); assay: α1 NKA endocytosis (biotinylation assay) in subclone 4; assay type: cell-based; settings: xenograft derived clone 4
T1 construct: endogenous in cells; host or cells: subclone 4 (from DU145 α1 NKA knockdown xenograft)
Protocol: α1 NKA endocytosis assay. Endocytosis assay was performed as described before.

purified pig kidney NKA = biological target: T2, purified pig kidney NKA (Sus scrofa, UniProt P05024); assay: Na/K-ATPase (ATPase) activity assay; assay type: biochemical
T2 construct: Na/K-ATPase activity assay of MB5 with purified pig kidney enzyme; from tissue; host or cells: pig kidney
Protocol: It is appreciated that ouabain induces Src/ERK activation (increased protein phosphorylation) of LLC-PK1 cells by binding to α1 NKA and thereby initiates a signaling cascade which results in the endocytosis of the α1 NKA to terminate the signaling.
ATPase activity assay. ATPase activity assay was performed as previously described.
As archetypal agonists of NKA receptor function, ouabain and other CTS stimulate cellular signaling by activating α1 NKA/Src signalosome complex, which results in its endocytosis. It was reasoned that compounds that inhibit CTS induced signaling could function as inverse agonists of this signalosome complex and prevent α1 NKA endocytosis. A group of hydroxyxanthones were thus tested that were identified as a new class of Na/K-ATPase ligands using a high throughput in vitro screening platform and a library of 2600 structurally diverse chemicals.

DU145 derived subclones = assay: Western blot / immunostaining of EMT markers, Src/FAK activation and proliferation markers in DU145 derived subclones; assay type: cell-based, human; settings: subclone 2 cells, 1 μM, 24 hours
[5] = pharmacokinetic (PK) and toxicity study in a mouse model; assay type: in vivo
PC3 cells [6] = assay: Spheroid aggregation in ultralow attachment plates, PC3; assay type: cell-based, human
Protocol: Spheroid aggregation in ultralow attachment plates. 5000 cells were plated in a 6 well ultralow attachment plate from Corning and allowed to form spheroids spontaneously for a week. Cell aggregates were then immunostained for E-cadherin expression using a monoclonal anti-E-cadherin antibody (Santacruz Biotechnology, Catalogue No.sc-71008), followed by Alexa-Fluor 488 anti-mouse secondary antibody (Thermo-Fisher).

Structure (SMILES): O=c1c2cccc(O)c2oc2c(O)c(O)ccc12 [MB5]
- spheroid size [1]: significantly reduced the size of subclone 5 spheroids
- plasma stability (plasma stability): good plasma stability
- EMT phenotype (PC3 cells [2]): reversed the EMT phenotype
- Src activation (PC3 cells [2]): decreased Src activation
- α1 NKA expression (PC3 cells [2]): significantly increased α1 NKA expression
- reduction of tumor growth ([3]; 20 mg/kg daily intraperitoneally for 3.5 weeks, DU145 and KD groups): about 70%
- bodyweight ([3]; 20 mg/kg, NOD/SCID mice): without significantly affecting bodyweight
- tumor growth ([3]; 20 mg/kg/day, DU145 or KD cells): reduces tumor growth
- tumor growth ([3]; all tested cell lines xenografted into NOD/SCID mice): significantly reduced tumor growth from all tested cell lines
- tumor growth ([4]; 10 mg/kg, subclones 4 and 2): significantly reduced tumor growth from both cell types; also recorded: significantly reduced xenografted tumor growth
- α1 NKA and E-cadherin expression in tumor lysates ([4]; subclone 2 tumor lysates, Western blot): increasing α1 NKA and E-cadherin expression
- α1 NKA endocytosis (α1 NKA): abolished α1 NKA endocytosis; also recorded: significantly reduced α1 NKA endocytosis
- inhibition of NKA activity (purified pig kidney NKA; about 1 nM to 100 nM): ~25%
- high affinity component, share of Na/K-ATPase activity (purified pig kidney NKA; biphasic NKA inhibition curve): 20%
- IC50 (purified pig kidney NKA; purified pig kidney enzyme, low affinity component of biphasic curve): ~10 µM and 10 µM
- inhibition of NKA activity (purified pig kidney NKA; ~10 μM): ~50%
- E-cadherin and occludin expression (immunostaining) (DU145 derived subclones): Increase in E-cadherin and occludin expression
- systemic exposure level versus dose ([5]; 50-200 mg/kg after oral administration): proportional to dose level
- toxic effects ([5]; after more than 1 month of administration): No detectable toxic effects
- removal by secondary metabolism ([5]; most likely by UGT enzymes): quickly removed by secondary metabolism
- toxicity ([5]; mouse, in vivo): quite non-toxic
- cell aggregation (PC3 cells [6]; PC3, ultralow attachment plates): increased cell aggregation in a concentration-dependent manner
- E-cadherin expression (PC3 cells [6]; PC3 aggregates, immunostaining): significantly increased E-cadherin expression

Source: patent US20230130102A1, “Na/K-ATPase LIGANDS AND USE THEREOF FOR TREATMENT OF CANCER” (Marshall University Research Corporation, priority 2019, published 2023)
